Data published in PubChem BioAssay AID330 (DTP/NCI, 2004).
Where “and” joins values, the source holds several entries; their conditions need not be identical. Equal values may be shown once. Inconclusive results and toxic doses are left out. Rule for the calls: active = survival T/C of 150% or more; inactive = T/C below 125% in these data.

System: P388 leukemia ip, CD2F1 mice, survival T/C
Test: NCI In Vivo Anticancer Drug Screen. Data for tumor model P388 Leukemia (intraperitoneal) in CD2F1 (CDF1) mice
Conditions: endpoint: median survival time, higher = longer survival
Outline: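 Mice carrying the transplanted tumor received test compound or vehicle. Survival was recorded in each group, and the value is the treated-group measurement divided by that of the vehicle-treated control group.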

[1] = dose: 60.0 mg/kg/injection, schedule: Q01DX005 (ip), vehicle: saline with Tween-80
[2] = dose: 120.0 mg/kg/injection, schedule: Q01DX005 (ip), vehicle: saline with Tween-80
[3] = dose: 240.0 mg/kg/injection, schedule: Q01DX005 (ip), vehicle: saline with Tween-80
[4] = dose: 100.0 mg/kg/injection, schedule: Q04DX003 (ip), vehicle: saline with Tween-80
[5] = dose: 200.0 mg/kg/injection, schedule: Q04DX003 (ip), vehicle: saline with Tween-80
[6] = dose: 400.0 mg/kg/injection, schedule: Q04DX003 (ip), vehicle: saline with Tween-80
[7] = dose: 100.0 mg/kg/injection, schedule: Q01DX001 (ip), vehicle: saline with Tween-80
[8] = dose: 60.0 mg/kg/injection, schedule: Q01DX005 (ip), vehicle: Klucel (hydroxypropylcellulose) (HPC)
[9] = dose: 120.0 mg/kg/injection, schedule: Q01DX005 (ip), vehicle: Klucel (hydroxypropylcellulose) (HPC)
[10] = dose: 240.0 mg/kg/injection, schedule: Q01DX005 (ip), vehicle: Klucel (hydroxypropylcellulose) (HPC)
[11] = dose: 12.5 mg/kg/injection, schedule: Q01DX009 (ip), vehicle: saline
[12] = dose: 25.0 mg/kg/injection, schedule: Q01DX009 (ip), vehicle: saline
[13] = dose: 50.0 mg/kg/injection, schedule: Q01DX009 (ip), vehicle: saline
[14] = dose: 50.0 mg/kg/injection, schedule: Q01DX009 (ip), vehicle: Klucel (hydroxypropylcellulose) (HPC)
[15] = dose: 100.0 mg/kg/injection, schedule: Q01DX009 (ip), vehicle: Klucel (hydroxypropylcellulose) (HPC)
[16] = dose: 200.0 mg/kg/injection, schedule: Q01DX009 (ip), vehicle: Klucel (hydroxypropylcellulose) (HPC)
[17] = dose: 50.0 mg/kg/injection, schedule: Q01DX009 (ip), vehicle: saline with Tween-80
[18] = dose: 50.0 mg/kg/injection, schedule: Q01DX005 (ip), vehicle: saline with Tween-80
[19] = dose: 100.0 mg/kg/injection, schedule: Q01DX005 (ip), vehicle: saline with Tween-80
[20] = dose: 200.0 mg/kg/injection, schedule: Q01DX005 (ip), vehicle: saline with Tween-80

Measured: T/C

O=C1OC(=O)C2C3C=CC(O3)C12 (centres undefined)
inactive: dose: 15.0 mg/kg/injection, schedule: Q01DX005 (ip), vehicle: saline 100 % of control | dose: 30.0 mg/kg/injection, schedule: Q01DX005 (ip), vehicle: saline 91 % of control | dose: 60.0 mg/kg/injection, schedule: Q01DX005 (ip), vehicle: saline 87 % of control and 89 % of control

Cn1nc2c(c(Cl)c1=O)Nc1ccccc1O2
inactive: [1] 108 % of control | [2] 104 % of control | [3] 96 % of control

O=C1CNC(=O)c2cc(N=Cc3ccccc3O)ccc2N1
inactive: [4] 111 % of control | [5] 114 % of control | [6] 104 % of control

CCCCCCCCCCCCNC(=O)C[n+]1cccc(C(=O)Nc2ccccc2)c1
inactive: dose: 3.0 mg/kg/injection, schedule: Q01DX009 (ip), vehicle: saline with Tween-80 100 % of control | dose: 6.0 mg/kg/injection, schedule: Q01DX009 (ip), vehicle: saline with Tween-80 104 % of control | dose: 12.0 mg/kg/injection, schedule: Q01DX009 (ip), vehicle: saline with Tween-80 95 % of control

Cc1nn(C(=S)S)c(C)c1N=Nc1cccc(Cl)c1Cl
inactive: [7] 91 % of control | dose: 200.0 mg/kg/injection, schedule: Q01DX001 (ip), vehicle: saline with Tween-80 94 % of control | dose: 400.0 mg/kg/injection, schedule: Q01DX001 (ip), vehicle: saline with Tween-80 108 % of control

Cc1ccc(C)[nH]1
inactive: dose: 12.5 mg/kg/injection, schedule: Q01DX001 (ip), vehicle: alcohol 109 % of control | dose: 25.0 mg/kg/injection, schedule: Q01DX001 (ip), vehicle: alcohol 111 % of control | dose: 50.0 mg/kg/injection, schedule: Q01DX001 (ip), vehicle: alcohol 101 % of control and 102 % of control

CCc1ncc(C(C)(O)c2ccccc2)n1Cc1ccccc1 (centres undefined)
inactive: [8] 100 % of control | [9] 102 % of control | [10] 99 % of control

CN1CCN(N=Nc2ccccc2Cl)CC1
inactive: [11] 99 % of control | [12] 111 % of control | [13] 103 % of control and 98 % of control

CCCCCCCC(=O)Nc1cc(C)ccc1C
inactive: [4] 100 % of control | [5] 86 % of control | [6] 90 % of control

O=C(Nc1ccc(O)cc1)C(F)(F)F
inactive: [14] 93 % of control | [15] 95 % of control | [16] 90 % of control

Cc1nn(CCO)c2nc(N)nc(N)c12
inactive: dose: 100.0 mg/kg/injection, schedule: Q01DX001 (ip), vehicle: suspension in saline 104 % of control | dose: 200.0 mg/kg/injection, schedule: Q01DX001 (ip), vehicle: suspension in saline 101 % of control | dose: 400.0 mg/kg/injection, schedule: Q01DX001 (ip), vehicle: suspension in saline 100 % of control

CCSc1nc2ccc(NC(=O)/C=C/C(=O)O)cc2s1
inactive: [14] 103 % of control | [15] 90 % of control | [16] 95 % of control

CC1CCCN(C(=O)Nc2ccc([N+](=O)[O-])cc2)C1 (centres undefined)
inactive: [17] 99 % of control | dose: 100.0 mg/kg/injection, schedule: Q01DX009 (ip), vehicle: saline with Tween-80 94 % of control | dose: 200.0 mg/kg/injection, schedule: Q01DX009 (ip), vehicle: saline with Tween-80 92 % of control

Cc1cc(Oc2ccc(Cl)cc2NC(=O)Nc2cccc(C(F)(F)F)c2)cc(S(=O)(=O)O)c1Cl
inactive: [7] 100 % of control

COc1cc(CC(O)c2cc(OC)c(OC)c(OC)c2)cc(OC)c1OC (centres undefined)
inactive: dose: 31.25 mg/kg/injection, schedule: Q01DX009 (ip), vehicle: saline + Tween-80 + alcohol 102 % of control | dose: 62.5 mg/kg/injection, schedule: Q01DX009 (ip), vehicle: saline + Tween-80 + alcohol 102 % of control | dose: 125.0 mg/kg/injection, schedule: Q01DX009 (ip), vehicle: saline + Tween-80 + alcohol 100 % of control | dose: 250.0 mg/kg/injection, schedule: Q01DX009 (ip), vehicle: saline + Tween-80 + alcohol 91 % of control

COc1ccc(C(=O)C(Br)C(Br)C(=O)O)cc1 (centres undefined)
inactive: dose: 12.5 mg/kg/injection, schedule: Q01DX009 (ip), vehicle: saline with Tween-80 114 % of control | dose: 25.0 mg/kg/injection, schedule: Q01DX009 (ip), vehicle: saline with Tween-80 114 % of control | [17] 107 % of control and 121 % of control

O=C(Cc1cccc2c(=O)cc(-c3ccccc3)oc12)OCCN1CCOCC1
inactive: [13] 99 % of control | dose: 100.0 mg/kg/injection, schedule: Q01DX009 (ip), vehicle: saline 100 % of control

Cc1noc2c1CC(=O)c1ccccc1OC2
inactive: [1] 100 % of control | [2] 98 % of control | [3] 94 % of control

COc1cc(Br)c(C(=O)N(C)c2ccccc2)cc1OC
inactive: dose: 25.0 mg/kg/injection, schedule: Q01DX009 (ip), vehicle: other 106 % of control | dose: 50.0 mg/kg/injection, schedule: Q01DX009 (ip), vehicle: other 108 % of control

C=C(CSCCCCCCCCCCCC)C(=O)O
inactive: [18] 116 % of control | [19] 114 % of control | [20] 115 % of control

CN(C)c1ccc2ccc(=O)[nH]c2c1
inactive: [18] 95 % of control | [19] 108 % of control | [20] 99 % of control

O=C1NC(=O)C2(CCCc3ccccc32)N1 (centres undefined)
inactive: dose: 50.0 mg/kg/injection, schedule: Q01DX005 (ip), vehicle: Klucel (hydroxypropylcellulose) (HPC) 101 % of control | [18] 97 % of control | dose: 100.0 mg/kg/injection, schedule: Q01DX005 (ip), vehicle: Klucel (hydroxypropylcellulose) (HPC) 104 % of control | [19] 94 % of control | dose: 200.0 mg/kg/injection, schedule: Q01DX005 (ip), vehicle: Klucel (hydroxypropylcellulose) (HPC) 104 % of control | [20] 94 % of control

CCOP(=O)(OCC)C1CCCN2CCc3c([nH]c4ccccc34)C12 (centres undefined)
inactive: [11] 98 % of control | [12] 96 % of control | [13] 100 % of control and 89 % of control | dose: 200.0 mg/kg/injection, schedule: Q01DX009 (ip), vehicle: saline 100 % of control

C=C1C(=O)OC2/C=C(\C)C(O)/C=C\C(C)(O)CC(OC(=O)/C(C)=C/C)C12 (centres undefined)
inactive: dose: 10.0 mg/kg/injection, schedule: Q01DX009 (ip), vehicle: saline 114 % of control | dose: 20.0 mg/kg/injection, schedule: Q01DX009 (ip), vehicle: saline 101 % of control | dose: 40.0 mg/kg/injection, schedule: Q01DX009 (ip), vehicle: saline 108 % of control

CC(C)NC(=O)OCc1c(COC(=O)NC(C)C)c2n(c1-c1ccc(Cl)c(Cl)c1)CCS2=O (centres undefined)
inactive: dose: 25.0 mg/kg/injection, schedule: Q01DX005 (ip), vehicle: saline with Tween-80 100 % of control | [18] 97 % of control | [19] 87 % of control

O=C(Nc1cccc(C(F)(F)F)c1)C(Cl)=C(Cl)Cl
inactive: [8] 103 % of control | [9] 111 % of control | [10] 95 % of control
